Results reported in article PMC9457736, “Dual Inhibition of HIV-1 and Cathepsin L Proteases by Sarcandra glabra” (Molecules, 2022).
Where two headings read alike, the source gives them in different places.

Tests used:
[1] = biological target: T1, human recombinant Cathepsin L protease (Homo sapiens, UniProt P07711); assay: FRET assay of Cathepsin L protease inhibition (SensoLyte 520 kit); assay type: biochemical; conditions: for inhibition at 10 µg/mL: read-out: CatL PR Inhibition (%) ± SD at 0.01 (mg/mL)
T1 construct: purchased AnaSpec Inc. SensoLyte 520 Cathepsin L Protease Assay Kit, Lot#: AS72218-1010
Description: (§1) Enzyme activities of HIV-1, Cathepsin L, and renin proteases were determined by a FRET assay, following the manufacturer’s protocol. Briefly, the HIV-1 PR activity was assayed using 384-well microplates with a well volume of 120 μL (Corning Incorporated, Corning, NY, USA). Then, 8 μL of recombinant HIV-1 protease (wild type, NCBI accessiob: NC-001802, final concentration: 0.01 mg/mL (80 ng/well), AnaSpec Inc., Fremont, San Jose, CA, USA) was mixed with 2 μL of the test compounds (0.01~1.0 mg/mL). Reactions were then initiated by adding 10 μL of the HIV protease substrate (50X dilution with assay buffer). Fluorescence was measured using a EX/Em = 490/520 nm filter module on a Synergy II microplate reader. To evaluate the inhibitory activity of the test compounds towards Cathepsin L protease, fluorimetric SensoLyte^TM 520 Cathepsin L Protease Assay Kit (Lot#: AS72218-1010, AnaSpec Inc. San Jose, CA, USA) was used. Briefly, 2 μL test compound solutions (0.01~1.0 mg/mL) and 8 µL of human recombinant Cathepsin L protease (200× dilution with DTT-containing assay buffer, final concentration: 0.5 µg/mL) were added in the microplate wells. The microplate was pre-incubated at room temperature for 10 min. The enzymatic reaction was subsequently initiated by adding 10 μL of freshly diluted Cathepsin L substrate solution (100× dilution with assay buffer, final concentration: 0.01 mM) into each well. The microplate was gently shaken for 30 s before being incubated at 37 °C for 30 min. Fluorescence was measured at an emission of 520 nm and excitation of 490 nm. A Cathepsin L inhibitor, (100× dilution with assay buffer, final concentration: 1 µM) was used as a positive control. IC50 values of tested compounds were calculated by Microsoft Office Excel software using three different concentrations.

[2] = biological target: T2, recombinant HIV-1 protease (wild type) (Human immunodeficiency virus type 1 group M subtype B, UniProt P04585); assay: FRET assay of HIV-1 protease inhibition; assay type: biochemical; conditions: for inhibition at 1000 µg/mL / HIV-1 PR Inhibition (%) ± SD at 1.0 (mg/mL): 1.0 mg/mL; for inhibition at 1000 µg/mL / HIV-1 PR Inhibition (%) ± SD at 1.0 (mg/mL) / IC50 ± RSD% HIV-1 PR: n = 3; for inhibition at 1000 µg/mL: read-out: HIV-1 PR Inhibition (%) ± SD at 1.0 (mg/mL)
T2 construct: 8 μL of recombinant HIV-1 protease (wild type); purchased AnaSpec Inc
Description: as §1, with “Then, 8 μL of recombinant HIV-1 protease (wild type, NCBI accessiob: NC-001802, final concentration: 0.01 mg/mL (80 ng/well), AnaSpec Inc., Fremont, San Jose, CA, USA) was mixed with 2 μL of the test compounds (0.01~1.0 mg/mL).” left out, “To evaluate the inhibitory activity of the test compounds towards Cathepsin L protease, fluorimetric SensoLyte^TM 520 Cathepsin L Protease Assay Kit (Lot#: AS72218-1010, AnaSpec Inc. San Jose, CA, USA) was used.” left out

T1 sequence (P07711 114-333): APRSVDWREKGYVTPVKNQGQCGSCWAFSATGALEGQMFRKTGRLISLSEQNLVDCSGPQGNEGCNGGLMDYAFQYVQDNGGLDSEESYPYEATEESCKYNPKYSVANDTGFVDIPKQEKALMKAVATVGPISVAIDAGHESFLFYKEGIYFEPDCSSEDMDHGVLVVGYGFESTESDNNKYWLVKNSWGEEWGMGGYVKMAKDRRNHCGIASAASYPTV

| SMILES | inhibition at 10 µg/mL ([1]; 0.01 mg/mL, n = 3) [%] | inhibition at 1000 µg/mL [2] [%] | inhibition of CatL PR (in words) [1] | inhibition at 10 µg/mL [1] [%] | IC50 [2] [µM] | HIV-1 PR Inhibition (%) ± SD at 1.0 (mg/mL) [2] [%] | IC50 ± RSD% HIV-1 PR [2] [%] | HIV-1 PR Inhibition (%) ± SD at 1.0 (mg/mL) ([2]; listed as 3,4-dicaffeoylquinic acid) |
| --- | --- | --- | --- | --- | --- | --- | --- | --- |
| C[N+](C)(C)CC(=O)O [Compound 1, Betaine] | -15.5 ± 5.76 | 8.95 ± 4.61 |  |  |  |  |  |  |
| O=C(O)[C@]1(O)C[C@@H](O)[C@@H](O)[C@H](O)C1 [Compound 2, D-(-)-Quinic acid] |  | -20.1 ± 2.61 | no inhibition | -0.32 ± 8.61 |  |  |  |  |
| COc1ccc(C(C)=O)c(O)c1 [Compound 3, Paeonol] | -15 ± 0.56 | -12.6 ± 0.26 |  |  |  |  |  |  |
| O=C(O)c1ccc(O)c(O)c1 [Compound 4, Protocatechuic acid] |  | 47.9 ± 1.82 |  | 42.1 ± 2.25 |  |  |  |  |
| O=C(/C=C/c1ccc(O)c(O)c1)O[C@@H]1C[C@](O)(C(=O)O)C[C@@H](O)[C@H]1O [Compound 5, Chlorogenic acid] | 40.8 ± 2.54 |  |  |  |  |  |  |  |
| O=c1ccc2ccc(O)cc2o1 [Compound 6, 7-Hydroxycoumarine] | 22.6 ± 0.53 | 28.9 ± 4.41 |  |  |  |  |  |  |
| O=C(O)/C=C/c1ccc(O)c(O)c1 [Compound 7, Caffeic acid] | 32.1 ± 1.68 | > 50 |  |  | 2660 | 65.9 ± 0.00 | 0.48 ± 0.124 |  |
| COc1cc2ccc(=O)oc2c(O)c1O [Compound 8, Fraxetin] | 15 ± 5.25 | 24.1 ± 6.7 |  |  |  |  |  |  |
| C[C@@H]1O[C@@H](O[C@H]2C(=O)c3c(O)cc(O)cc3O[C@@H]2c2ccc(O)c(O)c2)[C@H](O)[C@H](O)[C@H]1O [Compound 9, Astilbin] | -24.7 ± 8.14 | > 50 |  |  |  | 68.4 ± 5.45 | 0.54 ± 4.34 |  |
| COc1cc2ccc(=O)oc2c(OC)c1O [Compound 10, Isofraxidin] | 27 ± 2.37 | -2.09 ± 8.57 |  |  |  |  |  |  |
| O=C(C=Cc1ccc(O)c(O)c1)OC1CC(O)(C(=O)O)CC(O)C1OC(=O)C=Cc1ccc(O)c(O)c1 (stereo not shown) [Compound 11, 3,4-Dicaffeoylquinic acid] | -31.3 ± 6.24 |  | no inhibition |  | 252 | 86.1 ± 3.92 | 0.13 ± 2.84 | more than 50% |
| O=C(/C=C/c1ccc(O)c(O)c1)O[C@H](Cc1ccc(O)c(O)c1)C(=O)O [Compound 12, Rosmarinic acid] | 19.2 ± 1.7 |  |  |  |  |  |  |  |
| COc1cc(O)cc2c1C(=O)C[C@@H](c1ccccc1)O2 [Compound 13, Alpinetin] | 11.9 ± 8.99 | > 50 |  |  |  | 62.3 ± 0.96 | 0.62 ± 3.44 |  |
| C[C@@H]1CC[C@H]2[C@@H](C)C(=O)O[C@@H]3O[C@@]4(C)CC[C@@H]1[C@]32OO4 [Compound 14, Artemisinin] | -1.1 ± 0.52 | > 50 |  |  |  | 50.8 ± 0.58 | 0.95 ± 2.77 |  |
